Test results from paper PMC11443480, “Natural Rubrolides and Their Synthetic Congeners as Inhibitors of the Photosynthetic Electron Transport Chain” (Journal of Natural Products, 2024).
Values joined by “and” are separate entries in the source; they are usually repeats but may differ in a detail not shown here. Identical values can stand only once. “Also recorded” adds a separate entry of the source.

Experiments:
[1] = tested on: photosynthetic electron transport chain in isolated spinach thylakoids; test: Hill reaction: light-dependent ferricyanide reduction in isolated spinach thylakoids (basal); type: biochemical, spinach (Spinacea oleracea L.); conditions: basal conditions, 0.05–100 μM tested, triplicate; for IC50: read-out: IC50, inhibition by 50% of the light-dependent ferricyanide reduction
Procedure: The ability of natural rubrolides and their synthetic analogues to interfere with the chloroplast electron transport chain was evaluated by measuring the Hill reaction in thylakoid membranes isolated from spinach leaves. The results were summarized as the concentrations able to inhibit by 50% the rate measured in untreated controls (IC50, Table 2).
Thylakoid membranes were isolated from spinach (Spinacea oleracea L.) leaves. Plant material was resuspended in 5 mL g^–1 of ice-cold 20 mM Tricine-NaOH buffer (pH 8.0) containing 10 mM NaCl, 5 mM MgCl2, and 0.4 M sucrose and homogenized for 30 s in a blender at maximal speed. The homogenate was filtered through surgical gauze, and the filtrate was centrifuged at 4 °C for 1 min at 500g; the supernatant was further centrifuged for 10 min at 1,500g. Pelleted chloroplasts were osmotically swollen by resuspension in a sucrose-lacking buffer. The suspension was immediately diluted 1:1 with sucrose-containing buffer, kept on ice in the dark, and used within a few hours from the preparation. Chlorophyll content was calculated after diluting with 80% (v/v) acetone on the basis of Arnon’s formula. The basal rate of photosynthetic electron transport was measured by following light-driven ferricyanide reduction. Membrane aliquots corresponding to 3 μg of chlorophyll were incubated at 24 °C in wells of 96-well-plates in a final volume of 200 μL in the presence of 20 mM Tricine-NaOH buffer (pH 8.0), 10 mM NaCl, 5 mM MgCl2, 0.2 M sucrose, and 2 mM K3Fe(CN)6. The assay was initiated by exposure to saturating light (600 μmol m^–2 s^–1), and the rate of ferricyanide reduction was measured at 30 s intervals for 10 min using a Ledetect 96 plate reader (Labexim, Lengau, Austria) equipped with a LED plugin at 420 nm. Activity was calculated over the linear portion of the curve from a molar extinction coefficient of 1,000 M^–1 cm^–1. Rubrolides were dissolved in DMSO to obtain 10 mM solutions, which were then diluted with H2O, as appropriate. Their effect upon the Hill reaction was evaluated in parallel assays in which the compounds were added to the reaction mixture to concentrations ranging from 0.05 to 100 μM. Each dose was carried out at least in triplicate, and results were expressed as percentage of untreated controls. Mean values ± SE over replicates are reported. The concentrations causing 50% inhibition (IC50) and their confidence limits were estimated by nonlinear regression analysis using Prism 6 for Windows, version 6.03 (GraphPad Software).

[2] = tested on: photosynthetic electron transport chain in isolated spinach chloroplast; test: Ferricyanide reduction under uncoupling and phosphorylating conditions; type: biochemical, spinach (Spinacea oleracea L.); conditions: 10^–7 to 10^–5 M range
Procedure: Diuron was included as a positive control.
(§1) Phosphorylating electron flow was evaluated under the same conditions but in the presence of 0.5 mM ADP and 2 mM K2HPO4. Uncoupled activity was measured following the addition of 2 mM NH4Cl to the basal reaction mixture containing aliquots of membrane preparations corresponding to 1.5 μg of chlorophyll. To evaluate the effect on PSII only, uncoupled activity was blocked by the addition of the cytochrome b6f inhibitor 2,5-dibromo-6-isopropyl-3-methyl-1,4-benzoquinone (DBMIB) at […], and an electronic transfer from H2O to ferricyanide that excludes PSI (H2O → PSII → D1 protein → phenylendiamine → ferricyanide) was restored through the addition of 0.1 mM phenylenediamine. In this case, due to the lower reduction rate, aliquots of membrane preparations corresponding to 6 μg of chlorophyll were used.

PSII = biological target: T1, PSII (Spinacia oleracea, UniProt P69560); test: Partial electron flow involving PSII only (excluding PSI); type: biochemical, spinach (Spinacea oleracea L.); conditions: DBMIB-blocked, phenylenediamine-restored flow excluding PSI
T1 construct: Thylakoid membranes were isolated from spinach (Spinacea oleracea L.) leaves; from tissue; host or cells: spinach leaves (thylakoid membranes)
From the text: An interference with the cytochrome b6f complex cannot be completely excluded, but this difference could simply rely on the experimental conditions employed. To evaluate the effect on PSII only, uncoupled activity is blocked by the addition of the cytochrome b6f inhibitor 2,5-dibromo-6-isopropyl-3-methyl-1,4-benzoquinone, and an electronic transfer from H2O to ferricyanide that excludes PSI is restored through addition of phenylenediamine. […] A similar effect was previously noticed also in the case of other inhibitors.[10b],[10e],[10j]
as §1

rapeseed = tested on: rapeseed; parameters: method as in PMID 38695089; conditions: cited from earlier work; for Inhibition of rapeseed growth: greenhouse treatments
Raphanus sativus = test: Growth of Raphanus sativus seedlings sown in the presence of the compound; type: in vivo, Raphanus sativus cv Scarlet Champion; conditions: 10 μM in agarized medium; growth measured at three-leaf stage, 3 weeks after sowing
Procedure: The ability of these compounds to interfere with plant growth was evaluated by measuring the growth of Raphanus sativus seedlings that had been sown in the presence of a given rubrolide. […] In that case, compound 5 was also found inhibitory, but at a 20-fold higher concentration (200 μM).
Figure 1 Effect of natural rubrolides 1–7 on the growth of the model plant Raphanus sativus. Seeds were sown in the presence of a given compound at a concentration of 10 μM. Controls received the same volume of DMSO (0.1%) used to dissolve the rubrolides. The commercial herbicide hexazinone was also included, as a positive control. Growth was measured when untreated plants reached the three-leaf stage, 3 weeks after sowing. Results were analyzed using Prism 6 for Windows by means of the Kolmogorov–Smirnov normality test (P = 0.05), and then subjected to 1-way ANOVA. […] Results were plotted as a box and whiskers plot showing 10–90th percentiles.
Seeds of Raphanus sativus cv Scarlet Champion were surface sterilized by treatment with ethanol for 4 min and with 3% NaClO containing 0.04% Triton X-100 for 8 min under vacuum. […] The fresh biomass of each seedling was measured at that point by a destructive harvest. […]

| Compound | IC50 [1] | melting point | other results |
| --- | --- | --- | --- |
| O=C1O/C(=C\c2cc(Br)c(O)c(Br)c2)C(c2cc(Br)c(O)c(Br)c2)=C1Cl [Compound 1, rubrolide B] | 8.62 ± 1.89 µM |  |  |
| O=C1O/C(=C\c2ccc(O)c(Br)c2)C(c2ccc(O)c(Br)c2)=C1Cl [Compound 3, rubrolide K] | 8 ± 2.05 µM |  |  |
| O=C1O/C(=C\c2ccc(O)c(Br)c2)C(c2cc(Br)c(O)c(Br)c2)=C1Cl [Compound 4, rubrolide O] | 4.37 ± 0.8 µM |  | Effect on ferricyanide reduction under uncoupling and phosphorylating conditions [2]: progressive reduction of the activity; Effect on partial electron flow involving PSII only versus whole transport chain (PSII): able to inhibit the electron transfer from PSII to the cytochrome b6f complex |
| O=C1C=C(c2ccc(O)cc2)/C(=C/c2ccc(O)cc2)O1 [Compound 5, rubrolide E] |  |  | Inhibition of rapeseed growth at 200 μM (rapeseed; 200 μM (20-fold higher concentration)): inhibitory; Inhibition of rapeseed growth (rapeseed): inhibit rapeseed growth; Effect on growth of Raphanus sativus seedlings (phytotoxicity) (Raphanus sativus): ineffective; IC50, inhibition by 50% of the light-dependent ferricyanide reduction [1]: ineffective; also recorded: lack activity; also recorded: n.e. ^a |
| COc1ccc(/C=C2\OC(=O)C=C2c2ccc(O)cc2)cc1 [Compound 6, rubrolide F] | > 25 µM and 29.3 µM |  | Inhibition of rapeseed growth (rapeseed): inhibit rapeseed growth |
| COc1ccc(/C=C2\OC(=O)C(Cl)=C2c2ccccc2)cc1 [Compound 12] | 257 ± 273 µM |  |  |
| O=C1O/C(=C\c2ccc(F)cc2Cl)C(c2ccccc2)=C1Cl [Compound 13] | 35.9 ± 7.7 µM | 145.3 to 147 °C |  |
| COc1ccc(Cl)cc1C1=C(Cl)C(=O)O/C1=C\c1ccc2c(c1)OCO2 [Compound 15] |  | 134.9 to 136.2 °C |  |
| O=C1O/C(=C\c2ccc(-c3ccccc3)s2)C(c2ccc(F)cc2)=C1Cl [Compound 16] | 266 ± 272 µM | 218.3 to 219.8 °C (dec.) |  |
| O=C1O/C(=C\c2ccnc(Br)c2)C(c2ccc(F)cc2)=C1Cl [Compound 17] |  | 150.3 to 152.8 °C | IC50, inhibition by 50% of the light-dependent ferricyanide reduction [1]: n.e. ^a |
| COc1ccc(C2=C(Cl)C(=O)O/C2=C\c2ccc(OC)c(Br)c2)cc1Cl [Compound 19] |  |  | IC50, inhibition by 50% of the light-dependent ferricyanide reduction [1]: no activity and n.e. |
| O=C1O/C(=C\c2ccc(O)c(Br)c2)C(c2ccc(O)c(Cl)c2)=C1Cl [Compound 20, (Z)-5-(3-Bromo-4-hydroxybenzylidene)-3-chloro-4-(3-chloro-4-hydroxyphenyl)furan-2(5H)-one] | 4.97 ± 1.05 µM | 210 to 213 °C (dec.) | Effect on ferricyanide reduction under uncoupling and phosphorylating conditions [2]: progressive reduction of the activity; Effect on partial electron flow involving PSII only versus whole transport chain (PSII): able to inhibit the electron transfer from PSII to the cytochrome b6f complex |
| CN(C)C(=O)Nc1ccc(Cl)c(Cl)c1 [Diuron, reference compound] | 0.27 ± 0.01 µM |  | Effect on partial electron flow involving PSII only versus whole transport chain (PSII): very similar effectiveness |
| rubrolide C |  |  | Inhibition of rapeseed growth (rapeseed): inhibit rapeseed growth |
| rubrolide I [Compound 2] | 5.54 ± 0.98 µM |  | Effect on ferricyanide reduction under uncoupling and phosphorylating conditions [2]: progressive reduction of the activity; Effect on partial electron flow involving PSII only versus whole transport chain (PSII): able to inhibit the electron transfer from PSII to the cytochrome b6f complex |
